Tested on: mouse melanoma B-16 cells
Assay: Inhibitory effect on melanin synthesis
Assay type: cell-based
Protocol: In order to confirm the inhibition effect of the compounds prepared in Examples 1 to 31 and hydroquinone on melanin biosynthesis, the experiment was performed with the procedure described in the literature (Lotan R., Lotan D. Cancer Res., 40, pp. 3345-3350, 1980).
[…] The medium was cultured for 3 days and the cultured cells were separated from the medium by treating with trypsin. The separated cells were centrifuged and the melanin was extracted therefrom. The extract was treated with 1 ml of sodium hydroxide solution (1N) and boiled for 10 mins to resolve the melanin. Optical density (OD) value was measured 3 times at 475 nm by a spectrophotometer and the amount of melanin was expressed by absorbance(OD)/1×10^6 cells. The inhibitory effect of melanin (%) was calculated from the melanin synthesis as compared with the control group.

[1] = concentration 5 ug/ml, B-16 cells cultured 3 days, vs control group
[2] = concentration 20 ug/ml, B-16 cells cultured 3 days, vs control group
[3] = Mus musculus, B16, 72 h, concentration 5 ug/ml, B-16 cells cultured 3 days, vs control group
[4] = Mus musculus, B16, 72 h, concentration 20 ug/ml, B-16 cells cultured 3 days, vs control group
[5] = mouse B-16 melanoma cells, statement in words

## CCCC(=O)OC1C(OC(=O)CCC)C(OC(=O)CCC)C(OC(=O)CCC)C(OC(=O)CCC)C1OC(=O)CCC (stereo not drawn) [Example 25, myo-inositol hexa-O-butanoate]
[1]
  Melanin synthesis inhibition (%): 27%
[2]
  Melanin synthesis inhibition (%): 59%

## CC(C)=CC(=O)O[C@@H]1CCC[C@H]1OC(=O)C=C(C)C (relative stereo) [Example 12, 3-methyl-2-butenoic acid 2-(3-methyl-2-butenoyloxy)-trans-cyclopentyl ester]
[3]
  inhibition at 5 µg/mL: 27%
[4]
  inhibition at 20 µg/mL: 56%

## CCCCCCCCOC1CCCCC1OCCCCCCCC (stereo not drawn) [Example 31, 1,2-bis-octyloxy-cyclohexane]
[3]
  inhibition at 5 µg/mL: 15%
[4]
  inhibition at 20 µg/mL: 31%

## CC(C)=CC(=O)OC1COCC1OC(=O)C=C(C)C (stereo not drawn) [Example 22, 3-methyl-2-butenoic acid 4-(3-methyl-2-butenoyloxy)-tetrahydrofuran-3-yl ester]
[3]
  inhibition at 5 µg/mL: 27%
[4]
  inhibition at 20 µg/mL: 49%

## CCCCC(CC)C(=O)O[C@@H]1CCC[C@H]1OC(=O)C(CC)CCCC (relative stereo) [Example 14, 2-ethyl-hexanoic acid 2-(2-ethyl-hexanoyloxy)-trans-cyclopentyl ester]
[3]
  inhibition at 5 µg/mL: 31%
[4]
  inhibition at 20 µg/mL: 57%

## CCCCCOC1CCCCC1OCCCCC (stereo not drawn) [Example 29, 1,2-bis-pentyloxy-cyclohexane]
[3]
  inhibition at 5 µg/mL: 22%
[4]
  inhibition at 20 µg/mL: 43%

## CCCCC(CC)C(=O)Oc1cc2ccccc2cc1OC(=O)C(CC)CCCC (stereo not drawn) [Example 20, 2-ethyl-hexanoic acid 3-(2-ethyl-hexanoyloxy)-naphthalen-2-yl ester]
[3]
  inhibition at 5 µg/mL: 29%
[4]
  inhibition at 20 µg/mL: 55%

## CCCCCCC(=O)O[C@@H]1CCCC[C@H]1OC(=O)CCCCCC (relative stereo) [Example 5, heptanoic acid 2-heptanoyloxy-trans-cyclohexyl ester]
[3]
  inhibition at 5 µg/mL: 35%
[4]
  inhibition at 20 µg/mL: 56%

## CCCCC(=O)O[C@@H]1CCCC[C@H]1OC(=O)CCCC (relative stereo) [Example 2, pentanoic acid 2-pentanoyloxy-trans-cyclohexyl ester]
[3]
  inhibition at 5 µg/mL: 45%
[4]
  inhibition at 20 µg/mL: 78%

## CC(C)=CC(=O)OC1OC[C@@H](OC(=O)C=C(C)C)[C@@H](OC(=O)C=C(C)C)[C@@H]1OC(=O)C=C(C)C (stereo partly drawn) [Example 26]
[1]
  Melanin synthesis inhibition (%): 31%
[2]
  Melanin synthesis inhibition (%): 61%

## CCCCCCCC(=O)OC1CCCC(OC(=O)CCCCCCC)C1OC(=O)CCCCCCC (stereo not drawn) [Example 24, octanoic acid 2,3-bis-octanoyloxy-cyclohexyl ester]
[3]
  inhibition at 5 µg/mL: 39%
[4]
  inhibition at 20 µg/mL: 69%

## CC(C)=CC(=O)O[C@@H]1CCCC[C@H]1OC(=O)C=C(C)C (relative stereo) [Example 3, 3-methyl-2-butenoic acid 2-(3-methyl-2-butenoyloxy)-trans-cyclohexyl ester]
[3]
  inhibition at 5 µg/mL: 39%
[4]
  inhibition at 20 µg/mL: 72%

## CC(C)=CC(=O)Oc1ccccc1OC(=O)C=C(C)C [Example 16, 3-methyl-2-butenoic acid 2-(3-methyl-2-butenoyloxy)-phenyl ester]
[3]
  inhibition at 5 µg/mL: 15%
[4]
  inhibition at 20 µg/mL: 27%

## butyric acid 3-methyl-2-butenoic acid 2,3-bis-(3-methyl-2-butenoyloxy)-phenyl ester [Example 23]
[1]
  Melanin synthesis inhibition (%): 48%
[2]
  Melanin synthesis inhibition (%): 75%

## CCCCCCCC(=O)Oc1cc2ccccc2cc1OC(=O)CCCCCCC [Example 19, octanoic acid 3-octanoyloxy-naphthalen-2-yl ester]
[3]
  inhibition at 5 µg/mL: 39%
[4]
  inhibition at 20 µg/mL: 61%

## CCCCCC(=O)O[C@@H]1CCCC[C@H]1OC(=O)CCCCC (relative stereo) [Example 4, hexanoic acid 2-hexanoyloxy-trans-cyclohexyl ester]
[3]
  inhibition at 5 µg/mL: 41%
[4]
  inhibition at 20 µg/mL: 71%

## CCCCCCCCC(=O)O[C@@H]1CCCC[C@H]1OC(=O)CCCCCCCC (relative stereo) [Example 8, nonanoic acid 2-nonanoyloxy-trans-cyclohexyl ester]
[3]
  inhibition at 5 µg/mL: 21%
[4]
  inhibition at 20 µg/mL: 47%

## CCCCCCOC1CCCCC1OCCCCCC (stereo not drawn) [Example 30, 1,2-bis-hexyloxy-cyclohexane]
[3]
  inhibition at 5 µg/mL: 18%
[4]
  inhibition at 20 µg/mL: 41%

## CCCCCCCC(=O)Oc1cccnc1OC(=O)CCCCCCC [Example 21, octanoic acid 3-octanoyloxy-pyridin-2-yl ester]
[3]
  inhibition at 5 µg/mL: 48%
[4]
  inhibition at 20 µg/mL: 81%

## CCCCCCCC(=O)Oc1ccccc1OC(=O)CCCCCCC [Example 17, octanoic acid 2-octanoyloxy-phenyl ester]
[3]
  inhibition at 5 µg/mL: 9%
[4]
  inhibition at 20 µg/mL: 18%

## CC(C)CCOC1CCCCC1OCCC(C)C (stereo not drawn) [Example 28, 1,2-bis-(3-methyl-buthoxy)-cyclohexane]
[1]
  Melanin synthesis inhibition (%): 25%
[2]
  Melanin synthesis inhibition (%): 49%

## CCCCCCCC(=O)O[C@@H]1CCCC[C@H]1OC(=O)CCCCCCC (relative stereo) [Example 6, octanoic acid 2-octanoyloxy-trans-cyclohexyl ester]
[3]
  inhibition at 5 µg/mL: 30%
[4]
  inhibition at 20 µg/mL: 51%

## CC(C)=CC(=O)Oc1cc2ccccc2cc1OC(=O)C=C(C)C [Example 18, 3-methyl-2-butenoic acid 3-(3-methyl-2-butenoyloxy)-naphthalen-2-yl ester]
[3]
  inhibition at 5 µg/mL: 47%
[4]
  inhibition at 20 µg/mL: 67%

## Oc1ccc(O)cc1 [Hydroquinone, reference compound]
Mus musculus, B16, 72 h, concentration 1 ug/ml, B-16 cells cultured 3 days, vs control group
  inhibition at 1 µg/mL: 45%
[1]
  Melanin synthesis inhibition (%): Cell death
[5]
  cytotoxicity: high levels of cytotoxicity
  inhibitory activity of melanin synthesis: potent inhibitory activity at low concentration

## CCCCCCCC(=O)O[C@@H]1CCC[C@H]1OC(=O)CCCCCCC (relative stereo) [Example 13, octanoic acid 2-octanoyloxy-trans-cyclopentyl ester]
[3]
  inhibition at 5 µg/mL: 30%
[4]
  inhibition at 20 µg/mL: 54%

## CCCCC(CC)C(=O)O[C@@H]1CCCC[C@H]1OC(=O)C(CC)CCCC (relative stereo) [Example 7, 2-ethyl-hexanoic acid 2-(2-ethyl-hexanoyloxy)-trans-cyclohexyl ester]
[3]
  inhibition at 5 µg/mL: 42%
[4]
  inhibition at 20 µg/mL: 69%

## CC(C)=CC(=O)O[C@H]1CCCC[C@H]1OC(=O)C=C(C)C [Example 11, 3-methyl-2-butenoic acid 2-(3-methyl-2-butenoyloxy)-cis-cyclohexyl ester]
[3]
  inhibition at 5 µg/mL: 31%
[4]
  inhibition at 20 µg/mL: 54%

## CCCCCCCCCCCC(=O)O[C@@H]1CCCC[C@H]1OC(=O)CCCCCCCCCCC (relative stereo) [Example 10, lauric acid 2-lauroyloxy-trans-cyclohexyl ester]
[3]
  inhibition at 5 µg/mL: 9%
[4]
  inhibition at 20 µg/mL: 15%

## C=CCCC(=O)O[C@@H]1CCCC[C@H]1OC(=O)CCC=C (relative stereo) [Example 15, 4-pentenoic acid 2-(4-pentenoyloxy)-trans-cyclohexyl ester]
[3]
  inhibition at 5 µg/mL: 39%
[4]
  inhibition at 20 µg/mL: 72%

## CCCC(=O)OC[C@H]1O[C@H](OC)[C@H](OC(=O)CCC)[C@@H](OC(=O)CCC)[C@@H]1OC(=O)CCC [Example 27, methyl-alpha-D-glucose tetra-O-butanoate]
[1]
  Melanin synthesis inhibition (%): 29%
[2]
  Melanin synthesis inhibition (%): 49%

## CCCCCCCCCC(=O)O[C@@H]1CCCC[C@H]1OC(=O)CCCCCCCCC (relative stereo) [Example 9, decanoic acid 2-decanoyloxy-trans-cyclohexyl ester]
[3]
  inhibition at 5 µg/mL: 19%
[4]
  inhibition at 20 µg/mL: 39%

## CCCC(=O)O[C@@H]1CCCC[C@H]1OC(=O)CCC (relative stereo) [Example 1, butyric acid 2-butyryloxy-trans-cyclohexyl ester]
[3]
  inhibition at 5 µg/mL: 30%
[4]
  inhibition at 20 µg/mL: 55%

From patent publication US8420853B2, “Derivatives of cyclic compound and the use thereof” (Wonkisopharm Co., Ltd, priority 2006, dated 2013)
